In patent US4409232A, “Substituted oxadiazoles, method for the production thereof, compositions containing them and method of use thereof” (priority 1980, dated 1983):
“Also recorded” adds a separate entry of the source.

How the values were obtained:
[1] = system: beta-agonistic action (heart frequency); assay: Intrinsic sympathomimetic activity (ISA): increase of heart frequency in reserpinized rats relative to isoprenaline; type: in vivo, rat; conditions: for ISA % isoprenaline action: increase of heart frequency, reserpinized rats, isoprenaline maximum = 100%
Method: ISA: "Intrinsic sympathomimetic activity" (betaa -agonistic action). The percent increase of the heart frequency which is induced by a substance, referred to the maximum reaction of isoprenaline (100%). The measurements are carried out on reserpinolized rats which no longer show a sympathic tonus.

[2] = biological target: T1, beta-adrenoceptor (atrium) (Cavia porcellus, UniProt H0W3H1); assay: pA2 as beta-adrenoceptor blocker on isolated guinea pig atrium; type: cell-based
T1 construct: As test tissue are used the atrium and trachea of guinea pigs; from tissue; host or cells: isolated guinea pig atrium
T1 sequence (H0W3H1 1-470): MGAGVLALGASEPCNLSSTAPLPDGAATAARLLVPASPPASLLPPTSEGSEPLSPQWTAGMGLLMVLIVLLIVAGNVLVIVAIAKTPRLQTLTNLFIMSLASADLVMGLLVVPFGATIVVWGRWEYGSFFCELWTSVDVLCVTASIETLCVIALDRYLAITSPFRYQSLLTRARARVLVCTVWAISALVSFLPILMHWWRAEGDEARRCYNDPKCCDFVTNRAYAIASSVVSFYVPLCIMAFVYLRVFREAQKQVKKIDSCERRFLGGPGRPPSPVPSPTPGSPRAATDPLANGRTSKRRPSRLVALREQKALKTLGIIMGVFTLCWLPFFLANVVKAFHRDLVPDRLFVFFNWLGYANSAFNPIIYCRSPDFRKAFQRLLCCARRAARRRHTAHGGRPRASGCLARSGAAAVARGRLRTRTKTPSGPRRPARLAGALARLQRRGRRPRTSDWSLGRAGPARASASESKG
Source text: (§1) The terms used in Table 1 are defined as follows (from B. J. Clark: "Pharmacology of beta-adrenoceptor blocking agents" in "beta-Adrenoceptor blocking agents", P. R. Saxena and R. P. Forsyth edition. pA2 The strength of a beta-adrenoceptor blocker. Corresponds to the negative logarithm of the molar concentration of an antagonist which requires a doubling of the molar concentration of the agonist to achieve a given effect on isolated tissue. As test tissue are used the atrium and trachea of guinea pigs.

[3] = Local anesthetic action
[4] = system: β1 receptors of the heart versus β2 receptors (atrium / trachea); assay: Cardioselectivity: antilog pA2 (atrium)-pA2 (trachea); type: cell-based, guinea pig; conditions: for Cardioselectivity antilog pA2 (A)-pA2 (T): antilog of pA2 (atrium) - pA2 (trachea), guinea pig; for cardioselectivity (in words): qualitative statement
Source text: Most commercial β-adrenolytics of similar structure influence both β1 and β2 receptors; that is, they inhibit the effect of the sympathetic nervous system on the heart as well as on the peripheral blood vessels or the bronchial muscles. Blocking of the β2 receptors leads to an increase in tonus of the smooth muscle with broncho spasms and increased resistance of the peripheral vessels. […] This is because β2 receptor-blocking substances are not to be administered in bronchial diseases (such as asthma) because of their broncho-constrictive action. However, treatment of […].
pA2 The strength of a beta-adrenoceptor blocker. Corresponds to the negative logarithm of the molar concentration of an antagonist which requires a doubling of the molar concentration of the agonist to achieve a given effect on isolated tissue. As test tissue are used the atrium and trachea of guinea pigs.
Cardioselectivity: antilog pA2 (atrium)-pA2 (trachea)

[5] = biological target: T2, beta-adrenoceptor (trachea) (Cavia porcellus, UniProt Q8K4Z4); assay: pA2 as beta-adrenoceptor blocker on isolated guinea pig trachea; type: cell-based
T2 construct: As test tissue are used the atrium and trachea of guinea pigs; from tissue; host or cells: isolated guinea pig trachea
T2 sequence (Q8K4Z4 whole entry): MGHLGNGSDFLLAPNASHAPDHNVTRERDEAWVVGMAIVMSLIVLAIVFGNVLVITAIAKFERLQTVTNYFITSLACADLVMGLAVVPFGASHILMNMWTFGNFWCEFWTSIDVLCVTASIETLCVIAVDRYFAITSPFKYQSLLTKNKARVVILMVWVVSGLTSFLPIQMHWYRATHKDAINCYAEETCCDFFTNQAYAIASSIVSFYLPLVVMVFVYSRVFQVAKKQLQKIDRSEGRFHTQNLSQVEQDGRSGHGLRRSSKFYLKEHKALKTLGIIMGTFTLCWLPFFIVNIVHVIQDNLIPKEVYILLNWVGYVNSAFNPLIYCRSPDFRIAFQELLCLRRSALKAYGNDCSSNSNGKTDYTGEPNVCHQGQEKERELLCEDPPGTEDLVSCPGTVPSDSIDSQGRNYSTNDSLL
Source text: as §1

[6] = system: beta-adrenolytic action; assay: Half-life of the beta-adrenolytic action in rabbits after i.v. application; type: in vivo, rabbit; conditions: for t1/2 of beta-adrenolytic action: rabbits, i.v., time at which action has decreased to one half
Source text: […] : Time at which the beta-adrenolytic action of a substance in rabbits after i.v. application has decreased to one half.

| Kb [2] [nM] | Local anesth. action [3] | cardioselectivity (in words) [4] | Kb [5] [nM] | agonistic / isoprenaline action (in words) ([1]; qualitative statement) | SMILES | ISA % isoprenaline action [1] [%] | Cardioselectivity antilog pA2 (A)-pA2 (T) [4] | t1/2 of beta-adrenolytic action [6] [h] | half-life (in words) ([6]; qualitative statement) | cardioselectivity (in words) ([4]; listed as (c)) |
| --- | --- | --- | --- | --- | --- | --- | --- | --- | --- | --- |
| 79.4 | 0 | preferred for their selectivity | 1580 |  | CCCCCCCCCC(=O)Nc1ccc(OCC(O)CNC(C)(C)C)c(-c2nnco2)c1 (centres unmarked) [Example 6, 2-[2-(2-hydroxy-3-tert.-butylamino-propoxy)-5-n-decanoylamino-phenyl]-1,3,4oxadiazole] | 0 | 20 |  |  |  |
| 50.1 | 0 |  | 1260 |  | CCCCCCC(=O)Nc1ccc(OCC(O)CNC(C)(C)C)c(-c2nnco2)c1 (centres unmarked) [Example 2, 2-[2-(2-hydroxy-3-tert.-butylamino-propoxy)-5-n-heptanoylaminophenyl]-1,3,4oxadiazole] | 0 | 25 | 3.5 | particularly long half-life | preferred for their selectivity; also recorded: highly selectively active |
| 209 | 0 | preferred for their selectivity | 4170 |  | CC(=O)Nc1ccc(OCC(O)CNC(C)(C)C)c(-c2nnco2)c1 (centres unmarked) [Example 1, 2-[2-(2-hydroxy-3-tert.-butylamino-propoxy)-5-acetamido-phenyl]-1,3,4 oxadiazole] | 0 | 17 | 5 |  |  |
| 50.1 | 0 |  | 158 | high isoprenaline action | CC(C)(C)NCC(O)COc1ccccc1-c1nnco1 (centres unmarked) [Comparison Substance 2, 2-[2-(2-hydroxy-3-tert.butylamino-propoxy)-phenyl]-1,3,4-oxadiazole, reference compound] | 79 | 3 |  |  |  |
| 39.8 | 0 | preferred for their selectivity | 1260 |  | CCCCCCCC(=O)Nc1ccc(OCC(O)CNC(C)(C)C)c(-c2nnco2)c1 (centres unmarked) [Example 4, 2-[2-(2-hydroxy-3-tert.-butylamino-propoxy)-5-n-octanoylaminophenyl]-1,3,4 oxadiazole] | 0 | 32 |  |  |  |
|  |  | preferred for their selectivity |  |  | CCCCCCCCC(=O)Nc1ccc(OCC(O)CNC(C)(C)C)c(-c2nnco2)c1 (centres unmarked) [Example 5, 2-[2-(2-hydroxy-3-tert.-butylamino-propoxy)-5-n-nonanoylaminophenyl]-1,3,4 oxadiazole] |  |  |  |  |  |

| SMILES | Kb [2] [nM] | Local anesth. action [3] | cardioselectivity (in words) [4] | Kb [5] [nM] | agonistic / isoprenaline action (in words) ([1]; qualitative statement) | ISA % isoprenaline action [1] [%] | Cardioselectivity antilog pA2 (A)-pA2 (T) [4] | t1/2 of beta-adrenolytic action [6] [h] | half-life (in words) ([6]; qualitative statement) | cardioselectivity (in words) ([4]; listed as (c)) |
| --- | --- | --- | --- | --- | --- | --- | --- | --- | --- | --- |
| CCCC(=O)Nc1ccc(OCC(O)CNC(C)C)c(C(C)=O)c1 (centres unmarked) [Comparison Substance 1, Acebutolol, reference compound] |  | present |  | 9770 |  | 27 |  | 1.6 |  |  |
